Test results as given in US20060069132A1, “Azolecarboxamide herbicides” (priority 2004, published 2006).

Tests used:
woolly cupgrass = assay: Test C pre-/postemergence herbicide test; type: in vivo, Eriochloa villosa
Method in brief: (§1)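 Pre/post spray; non-phytotoxic solvent + surfactant. Post-timing 1–4 leaves, 2–18 cm. Read-out: visual % control vs untreated, day 12–14, greenhouse.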

yellow nutsedge = assay: Test C pre-/postemergence herbicide test; type: in vivo, Cyperus esculentus
Method in brief: as §1

velvetleaf = assay: Test A pre-/postemergence herbicide test; type: in vivo, Abutilon theophrasti
Method in brief: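 Greenhouse injury scoring (0–100, complete control = 100) at approximately ten days follows simultaneous pre- and postemergence application. Soil received a directed spray after seeding; seedlings of 2–10 cm at the one- to two-leaf stage were sprayed to runoff.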

cocklebur = assay: Test B pre-/postemergence herbicide test; type: in vivo, Xanthium strumarium
Method in brief: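 Seeds were planted and treated preemergence with compounds formulated in a non-phytotoxic solvent mixture containing surfactant, while plants at the 1- to 4-leaf stage (2 to 18 cm) received postemergence sprays. Flooded paddy plants were grown to the 2-leaf stage. After 13 to 15 days in a greenhouse, injury was visually rated 0–100 against untreated controls.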

barnyardgrass = assay: Test B flooded paddy test; type: in vivo, Echinochloa crus-galli; details: 1000 g ai/ha, scale 0 to 100 (0 no effect, 100 complete control)
Method in brief: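 Postemergence plants were sprayed with formulated test chemicals at 2 to 18 cm height (1- to 4-leaf stage); paddy species were grown to the 2-leaf stage. After 13 to 15 days in a greenhouse, injury was rated visually against untreated controls on a 0–100 scale (0 = no effect, 100 = complete control).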

common ragweed = assay: Test C pre-/postemergence herbicide test; type: in vivo, Ambrosia elatior; design: key to Plant response rating, Ragweed: 0 = no effect, 100 = complete control
Method in brief: as §1

rice = assay: Test B pre-/postemergence herbicide test; type: in vivo, Oryza sativa; details: preemergence; for Plant response rating, Rice: 500 g ai/ha
Method in brief: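 Species tested were Echinochloa crus-galli, Ipomoea coccinea, Xanthium strumarium and Oryza sativa, treated both before emergence and at the 1- to 4-leaf stage; rice and barnyardgrass were also tested under flooding at 2 leaves. Greenhouse incubation lasted 13–15 days before visual 0–100 scoring.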

goosegrass = assay: Test C pre-/postemergence herbicide test; type: in vivo, Eleusine indica
Method in brief: as §1

[1] = tested on: smallflower umbrella sedge; assay: Test C flooded paddy test; type: in vivo, Cyperus difformis
[2] = 62 g ai/ha, preemergence, scale 0 to 100
[3] = 125 g ai/ha, scale 0 (no effect) to 100 (complete control), visual, 12 to 14 days, preemergence
[4] = 250 g ai/ha, scale 0-100, preemergence
[5] = Preemergence, 500 g ai/ha, scale 0 to 100, 0 no effect, 100 complete control
[6] = Postemergence, 500 g ai/ha, 0 to 100 scale, 0 no effect, 100 complete control
[7] = Postemergence, 2000 g ai/ha, 0 to 100 scale, 0 no effect, 100 complete control
[8] = Preemergence, 2000 g ai/ha, visual rating, 0 to 100 scale (0 no effect, 100 complete control)
[9] = preemergence, 500 g ai/ha, visual injury, 0 to 100 scale (0 no effect, 100 complete control)
[10] = 125 g ai/ha; 0 = no effect, 100 = complete control; preemergence
[11] = 500 g ai/ha; visual rating 0-100, 0 no effect, 100 complete control; preemergence
[12] = postemergence, 125 g ai/ha; visual rating, scale 0 (no effect) to 100 (complete control)
[13] = postemergence, 500 g ai/ha; visual rating, scale 0 (no effect) to 100 (complete control)
[14] = 125 g ai/ha, 0 = no effect, 100 = complete control
[15] = visual rating 0-100, 0 no effect, 100 complete control
[16] = 500 g ai/ha, scale 0 to 100 (0 no effect, 100 complete control), visual, 12 to 14 days, preemergence
[17] = Postemergence, 500 g ai/ha, scale 0 to 100
[18] = Postemergence, 250 g ai/ha, scale 0 to 100, 0 no effect, 100 complete control
[19] = postemergence, 125 g ai/ha, scale 0 to 100
[20] = postemergence, 62 g ai/ha, scale 0 to 100

CC(=NO)c1cccc(NC(=O)c2sc(C(C)(C)C)nc2C)c1 [Compound 195]
Plant response rating, Cupgrass, Woolly (woolly cupgrass; [2]): 0 | Plant response rating, Cupgrass, Woolly (woolly cupgrass; [3]): 0 | Plant response rating, Cupgrass, Woolly (woolly cupgrass; [4]): 10 | Cupgrass, Woolly plant response rating (woolly cupgrass; [5]): 10 | Plant response rating, Nutsedge, Yellow (yellow nutsedge; [2]): 0 | Plant response rating, Nutsedge, Yellow (yellow nutsedge; [3]): 0 | Plant response rating, Nutsedge, Yellow (yellow nutsedge; [4]): 0 | Nutsedge, Yellow plant response rating (yellow nutsedge; [5]): 70 | Velvetleaf plant response rating (velvetleaf; [6]): 0 | Plant response rating, Velvetleaf (velvetleaf; [7]): 15 | Velvetleaf plant response rating (velvetleaf; [8]): 15 | Velvetleaf plant response rating (velvetleaf; [9]): 0 | Cocklebur plant response rating (0 to 100 scale) (cocklebur; [10]): 0 | Plant response rating, Cocklebur (cocklebur; [11]): 0 | Cocklebur plant response rating (cocklebur; [12]): 30 | Cocklebur plant response rating (cocklebur; [13]): 60 | Barnyardgrass plant response rating (barnyardgrass; visual rating, 13 to 15 days): 60 | Plant response rating, Ragweed (common ragweed; [2]): 20 | Plant response rating, Ragweed (common ragweed; [3]): 40 | Plant response rating, Ragweed (common ragweed; [4]): 80 | Ragweed plant response rating (common ragweed; [5]): 90 | Rice plant response rating (0 to 100 scale) (rice; [14]): 10 | Plant response rating, Rice (rice; [15]): 20 | Plant response rating, Goosegrass (goosegrass; [2]): 100 | Plant response rating, Goosegrass (goosegrass; [3]): 100 | Plant response rating, Goosegrass (goosegrass; [4]): 100 | Goosegrass plant response rating (goosegrass; [5]): 100

CCNC(=O)c1cccc(NC(=O)c2sc(C(C)(C)C)nc2C)c1 [Compound 198]
Plant response rating, Cupgrass, Woolly (woolly cupgrass; [2]): 0 | Plant response rating, Cupgrass, Woolly (woolly cupgrass; [3]): 5 | Plant response rating, Cupgrass, Woolly (woolly cupgrass; [4]): 10 | Cupgrass, Woolly plant response rating (woolly cupgrass; [5]): 70 | Plant response rating, Nutsedge, Yellow (yellow nutsedge; [2]): 0 | Plant response rating, Nutsedge, Yellow (yellow nutsedge; [3]): 0 | Plant response rating, Nutsedge, Yellow (yellow nutsedge; [4]): 0 | Nutsedge, Yellow plant response rating (yellow nutsedge; [5]): 5 | Velvetleaf plant response rating (velvetleaf; [6]): 30 | Plant response rating, Velvetleaf (velvetleaf; [7]): 35 | Velvetleaf plant response rating (velvetleaf; [8]): 85 | Velvetleaf plant response rating (velvetleaf; [9]): 45 | Cocklebur plant response rating (0 to 100 scale) (cocklebur; [10]): 0 | Plant response rating, Cocklebur (cocklebur; [11]): 20 | Cocklebur plant response rating (cocklebur; [12]): 60 | Cocklebur plant response rating (cocklebur; [13]): 90 | Barnyardgrass plant response rating (barnyardgrass; visual rating, 13 to 15 days): 20 | Plant response rating, Ragweed (common ragweed; [2]): 50 | Plant response rating, Ragweed (common ragweed; [3]): 80 | Plant response rating, Ragweed (common ragweed; [4]): 95 | Ragweed plant response rating (common ragweed; [5]): 100 | Rice plant response rating (0 to 100 scale) (rice; [14]): 30 | Plant response rating, Rice (rice; [15]): 80 | Plant response rating, Goosegrass (goosegrass; [2]): 20 | Plant response rating, Goosegrass (goosegrass; [3]): 80 | Plant response rating, Goosegrass (goosegrass; [4]): 95 | Goosegrass plant response rating (goosegrass; [5]): 100

CCn1nc(C(C)(C)C)cc1C(=O)Nc1cccc(OC(F)F)c1 [Compound 332]
Sedge, Umbrella plant response rating ([1]; 62 g ai/ha, scale 0 to 100): 65 | Sedge, Umbrella plant response rating ([1]; 125 g ai/ha, scale 0 to 100 (0 no effect, 100 complete control)): 80 | Sedge, Umbrella plant response rating ([1]; 250 g ai/ha, scale of 0 to 100, 0 is no effect, 100 is complete control): 85 | Plant response rating, Sedge, Umbrella ([1]; 500 g ai/ha, visual rating after 12 to 14 days, scale 0 to 100 (0 no effect, 100 complete control)): 85 | Plant response rating, Cupgrass, Woolly (woolly cupgrass; [2]): 0 | Plant response rating, Cupgrass, Woolly (woolly cupgrass; [3]): 0 | Plant response rating, Cupgrass, Woolly (woolly cupgrass; [4]): 5 | Plant response rating, Cupgrass, Woolly (woolly cupgrass; [16]): 10 | Cupgrass, Woolly plant response rating (woolly cupgrass; [17]): 10 | Plant response rating, Cupgrass, Woolly (woolly cupgrass; [18]): 10 | Plant response rating, Cupgrass, Woolly (woolly cupgrass; [19]): 5 | Plant response rating, Cupgrass, Woolly (woolly cupgrass; [20]): 5 | Plant response rating, Nutsedge, Yellow (yellow nutsedge; [2]): 0 | Plant response rating, Nutsedge, Yellow (yellow nutsedge; [3]): 0 | Plant response rating, Nutsedge, Yellow (yellow nutsedge; [4]): 0 | Plant response rating, Nutsedge, Yellow (yellow nutsedge; [16]): 0 | Nutsedge, Yellow plant response rating (yellow nutsedge; [17]): 0 | Plant response rating, Nutsedge, Yellow (yellow nutsedge; [18]): 0 | Plant response rating, Nutsedge, Yellow (yellow nutsedge; [19]): 0 | Plant response rating, Nutsedge, Yellow (yellow nutsedge; [20]): 0 | Plant response rating (0 to 100 scale), Cocklebur (cocklebur; 125 g ai/ha; 0 is no effect, 100 is complete control; preemergence): 0 | Cocklebur plant response rating (cocklebur; 125 g ai/ha; visual rating, scale 0 (no effect) to 100 (complete control); postemergence): 30 | Plant response rating, Cocklebur (cocklebur; 500 g ai/ha; visual rating, 0 = no effect, 100 = complete control; preemergence): 0 | Cocklebur plant response rating (cocklebur; postemergence, 500 g ai/ha; scale 0 to 100, 0 is no effect, 100 is complete control): 70 | Barnyardgrass plant response rating (barnyardgrass): 60 | Plant response rating, Ragweed (common ragweed; [2]): 0 | Plant response rating, Ragweed (common ragweed; [4]): 5 | Plant response rating, Ragweed (common ragweed; [16]): 70 | Ragweed plant response rating (common ragweed; [17]): 60 | Plant response rating, Ragweed (common ragweed; [18]): 40 | Plant response rating, Ragweed (common ragweed; [19]): 30 | Plant response rating, Ragweed (common ragweed; [20]): 5 | Plant response rating (0 to 100 scale), Rice (rice; 125 g ai/ha, 0 is no effect, 100 is complete control): 20 | Plant response rating, Rice (rice; visual rating, 0 = no effect, 100 = complete control): 40 | Plant response rating, Goosegrass (goosegrass; [2]): 80 | Plant response rating, Goosegrass (goosegrass; [3]): 85 | Plant response rating, Goosegrass (goosegrass; [4]): 100 | Plant response rating, Goosegrass (goosegrass; [16]): 100 | Goosegrass plant response rating (goosegrass; [17]): 60 | Plant response rating, Goosegrass (goosegrass; [18]): 15 | Plant response rating, Goosegrass (goosegrass; [19]): 15 | Plant response rating, Goosegrass (goosegrass; [20]): 10
